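1) Cells in 96-well plates. 2) Compound, 48 h, 5 concentrations. 3) Linear interpolation between surrounding doses. 4) Unreached endpoint = highest concentration. GI50 marks 50% less growth. TGI: concentration producing complete growth inhibition.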
Columns and labels:
Experiment in all cases: growth of human tumour cells (NCI), 48 h
[1] = test system: SF-539 CNS
[2] = test system: A549 NSCLC
[3] = test system: A498 renal
[4] = test system: UACC-62 melanoma
[5] = test system: SN12C renal
[6] = test system: LOX IMVI melanoma
[7] = test system: SK-MEL-2 melanoma
[8] = test system: NCI/ADR-RES ovarian
[9] = test system: HS 578T breast
[10] = test system: MDA-MB-435

## Cc1ccc2nc(Sc3c([N+](=O)[O-])ncn3C)[nH]c2c1
[1]
  TGI: 36.4 µM
[2]
  TGI: > 100 µM
[3]
  TGI: 83.2 µM
[4]
  TGI: 35.7 µM
[5]
  TGI: 35.8 µM
[6]
  TGI: > 100 µM

## CC12CC/C(=N/NC(N)=O)C3C1CCCC32
[1]
  TGI: > 100 µM
[2]
  TGI: > 100 µM
[7]
  TGI: > 100 µM
[3]
  TGI: > 100 µM
[4]
  TGI: > 100 µM
[5]
  TGI: > 100 µM
[6]
  TGI: > 100 µM

## CC12CCCC(C#N)(C1)OC2=O (centres undefined)
[1]
  TGI: > 100 µM
[2]
  TGI: > 100 µM
[7]
  TGI: > 100 µM
[3]
  TGI: > 100 µM
[4]
  TGI: > 100 µM
[5]
  TGI: > 100 µM

## CCc1cccc(C)c1N1C(=O)C(=O)C(c2nc3ccccc3o2)/C(=N/NC(=S)NN)C1=O (centres undefined)
[1]
  TGI: > 100 µM
[2]
  TGI: > 100 µM
[7]
  TGI: > 100 µM
[3]
  TGI: > 100 µM
[4]
  TGI: > 100 µM
[5]
  TGI: > 100 µM
[6]
  TGI: > 100 µM

## CCC1=C[C@@H]2CN(C1)Cc1c([nH]c3ccccc13)[C@@](C(=O)OC)(c1cc3c(cc1OC)N(C)[C@H]1[C@@](O)(C(=O)OC)[C@H](OC(C)=O)[C@]4(CC)C=CCN5CC[C@]31[C@@H]54)C2
[8]
  GI50: 1.58 µM
  TGI: 30.5 µM
[1]
  GI50: < 0.01 µM
  TGI: 0.0441 µM
[2]
  GI50: < 0.019 µM
  TGI: > 34.1 µM
[7]
  GI50: 0.727 µM
  TGI: 9.23 µM
[3]
  GI50: < 0.01 µM
  TGI: 0.141 µM
[4]
  GI50: < 0.01 µM
  TGI: 18.6 µM
[5]
  GI50: < 0.0214 µM
  TGI: 43.7 µM
[6]
  GI50: < 0.01 µM
  TGI: 15.5 µM
[9]
  GI50: < 0.01 µM
  TGI: 9.59 µM

## O=C1C(Cl)=C(Cl)C(=O)N1c1ccccc1Cl
[1]
  TGI: > 100 µM
[2]
  TGI: > 100 µM
[7]
  TGI: > 100 µM
[3]
  TGI: > 100 µM
[4]
  TGI: > 100 µM
[5]
  TGI: > 100 µM
[6]
  TGI: > 100 µM

## O=C(O)CCC(=O)Oc1ccc(O)c2c1CCCC2=O
[1]
  TGI: > 100 µM
[2]
  TGI: > 100 µM
[7]
  TGI: > 100 µM
[3]
  TGI: > 100 µM
[4]
  TGI: > 100 µM
[5]
  TGI: > 100 µM
[6]
  TGI: > 100 µM

## CCC[CH2][Sn]1([CH2]CCC)[O]C(=O)CN=C(C)c2ccccc2[O]1
[1]
  GI50: 2.78 µM
  TGI: > 100 µM
[2]
  GI50: 3 µM
  TGI: 9.62 µM
[7]
  GI50: 0.5 µM
  TGI: 1.55 µM
[3]
  GI50: 2.72 µM
  TGI: 11.4 µM
[4]
  GI50: 0.922 µM
  TGI: 2.21 µM
[5]
  GI50: 1.13 µM
  TGI: 2.34 µM
[6]
  GI50: 0.533 µM
  TGI: 1.84 µM

## CN1C(c2ccccc2)CC(C)(O)CC1c1ccccc1 (centres undefined)
[1]
  TGI: > 100 µM
[2]
  TGI: > 100 µM
[7]
  TGI: > 100 µM
[3]
  TGI: > 100 µM
[4]
  TGI: > 100 µM
[5]
  TGI: > 100 µM
[6]
  TGI: > 100 µM

## O=C(CC(=O)N1N=C(n2ccc3ccccc32)CC1c1ccccc1)Nc1ccc(Cl)cc1 (centres undefined)
[1]
  TGI: > 100 µM
[2]
  TGI: > 100 µM
[7]
  TGI: > 100 µM
[3]
  TGI: > 100 µM
[4]
  TGI: > 100 µM
[5]
  TGI: > 100 µM
[6]
  TGI: > 100 µM

## CCOC(=O)C1=C(C)NC(C)=C(C(=O)OCCNC(=O)c2ccc(N=[N+]=[N-])cc2)C1c1ccccc1C(F)(F)F (centres undefined)
[8]
  TGI: 21.5 µM
[1]
  TGI: > 31.6 µM
[2]
  TGI: 21.5 µM
[4]
  TGI: 21.5 µM
[10]
  TGI: 20.5 µM
[5]
  TGI: 21.5 µM
[6]
  TGI: > 31.6 µM
[9]
  TGI: 21.5 µM

— PubChem BioAssay (NCI)
